From patent publication US10227357B2, “Compounds and methods for kinase modulation, and indications therefor” (Plexxikon Inc., priority 2012, dated 2019) come the findings set out here.

SMILES strings stand for the structures.

One assay deals with T1, c-kit mutant D816V (Homo sapiens, UniProt P10721, D816V/DEL694-753).
T1 construct: residues 551-934, kinase insertion domain residues 694-753 deleted; 6x-histidine (N); made in house; host or cells: E. coli Arctic Express (DE3) RIL (Stratagene)
Briefly: c-Kit mutant D816V biochemical assay, AlphaScreen. As to conditions: c-kit D816V biochemical inhibitory activity; read-out: Biochemical activity (IC50 μM) Kit D816V. The essentials:
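Purified His-tagged c-Kit D816V (E. coli-expressed) assayed in 25 mM HEPES pH 7.2 with Mg/Mn, 5% DMSO and 10 μM ATP, 30 min at room temperature, 8-point 1:3 dilutions. Phosphorylation detected by AlphaScreen with streptavidin donor and PY20 acceptor beads; IC50 from signal versus concentration.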

A further assay addresses T2, c-kit kinase (Homo sapiens, UniProt P10721).
T2 construct: The c-kit (or kinase domain thereof) is an active kinase in AlphaScreen; poly-Histidine tag (in-house protein only) (cleaved yes); host or cells: E. coli BL21(DE3)RIL, co-expressed with PTP1B
Briefly: c-Kit biochemical assay, AlphaScreen, 10 μM ATP. Conditions: c-kit biochemical inhibitory activity; read-out: Biochemical activity (IC50 μM) Kit. The essentials:
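His-tagged c-Kit expressed in E. coli with co-expressed PTP1B (dephosphorylated), tag removed; 0.1 ng per reaction with biotinylated-peptide substrate in 50 mM HEPES pH 7.2, 5 mM MgCl2, 5 mM MnCl2, 5% DMSO, 10 μM ATP, 1 h at room temperature. Phosphorylation detected by AlphaScreen (streptavidin donor, PY20 acceptor beads); IC50 from 8-point 1:3 dilution series.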

T1 sequence (P10721 with tags, fused parts or gaps DEL694-753/D816V): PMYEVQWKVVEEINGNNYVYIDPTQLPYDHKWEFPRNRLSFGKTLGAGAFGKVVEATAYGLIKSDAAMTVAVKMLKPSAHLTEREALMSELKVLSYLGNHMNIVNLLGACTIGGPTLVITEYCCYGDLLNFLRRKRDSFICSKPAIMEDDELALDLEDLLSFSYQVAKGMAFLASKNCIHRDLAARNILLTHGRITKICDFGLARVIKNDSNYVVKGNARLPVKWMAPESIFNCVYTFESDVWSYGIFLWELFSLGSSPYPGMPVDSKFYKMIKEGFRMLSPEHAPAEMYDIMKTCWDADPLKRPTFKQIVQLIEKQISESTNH
T2 sequence (P10721 26-976): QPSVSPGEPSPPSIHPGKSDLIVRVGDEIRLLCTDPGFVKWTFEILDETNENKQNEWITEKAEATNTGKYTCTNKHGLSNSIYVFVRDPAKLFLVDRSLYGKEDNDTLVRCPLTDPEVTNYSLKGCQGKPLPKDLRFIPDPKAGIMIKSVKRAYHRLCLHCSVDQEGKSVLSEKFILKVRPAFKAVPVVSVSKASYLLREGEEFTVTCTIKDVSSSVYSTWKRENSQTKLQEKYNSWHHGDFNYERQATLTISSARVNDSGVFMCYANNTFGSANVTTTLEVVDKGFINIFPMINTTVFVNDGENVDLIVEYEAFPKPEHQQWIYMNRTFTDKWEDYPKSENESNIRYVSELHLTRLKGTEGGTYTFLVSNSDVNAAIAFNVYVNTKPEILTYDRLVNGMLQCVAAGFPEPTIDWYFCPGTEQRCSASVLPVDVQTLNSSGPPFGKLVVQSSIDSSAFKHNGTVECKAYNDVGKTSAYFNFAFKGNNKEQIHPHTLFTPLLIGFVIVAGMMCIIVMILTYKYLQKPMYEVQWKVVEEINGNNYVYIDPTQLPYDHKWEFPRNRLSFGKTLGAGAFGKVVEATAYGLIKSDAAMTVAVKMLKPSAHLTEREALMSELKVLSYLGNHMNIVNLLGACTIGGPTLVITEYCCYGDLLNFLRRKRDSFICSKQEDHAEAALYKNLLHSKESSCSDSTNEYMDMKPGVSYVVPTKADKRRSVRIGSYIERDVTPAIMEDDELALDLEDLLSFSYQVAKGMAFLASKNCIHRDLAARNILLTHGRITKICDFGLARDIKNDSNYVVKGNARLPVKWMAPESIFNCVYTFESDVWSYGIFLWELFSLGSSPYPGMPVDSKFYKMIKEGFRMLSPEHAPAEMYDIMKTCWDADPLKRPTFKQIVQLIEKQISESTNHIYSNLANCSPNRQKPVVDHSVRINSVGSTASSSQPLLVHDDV

For `COc1cccc([C@H](C)NC(=O)N2CCN(c3ncnc4cc(C5=CC(C)(C)NC(C)(C)C5)sc34)CC2)c1` [P-0574, N-[(1S)-1-(3-methoxyphenyl)ethyl]-4-[6-(2,2,6,6-tetramethyl-1,3-dihydropyridin-4-yl)thieno[3,2-d]pyrimidin-4-yl]piperazine-1-carboxamide], the IC50 on c-kit mutant D816V fell in the range of 0.0001 to 1 µM; at c-kit kinase, 1 to 10 µM.
With `C[C@H](NC(=O)N1CCN(c2ncnc3cc(-c4ccc(F)cc4)sc23)CC1(C)C)c1ccc(Cl)cc1` [P-0575, N-[(1S)-1-(4-chlorophenyl)ethyl]-4-[6-(4-fluorophenyl)thieno[3,2-d]pyrimidin-4-yl]-2,2-dimethyl-piperazine-1-carboxamide], the figures for the IC50 at c-kit mutant D816V and at c-kit kinase were 0.0001 to 1 µM and 10 to 200 µM, respectively.
For `COc1ccc([C@H](C)NC(=O)N2CCN(c3ncnc4cc(-c5ccc(F)cc5)sc34)CC2(C)C)cc1` [P-0576, 4-[6-(4-fluorophenyl)thieno[3,2-d]pyrimidin-4-yl]-N-[(1S)-1-(4-methoxyphenyl)ethyl]-2,2-dimethyl-piperazine-1-carboxamide], the half-maximal inhibitory concentration (IC50) on c-kit mutant D816V fell in the range of 0.0001 to 1 µM; on c-kit kinase, 10 to 200 µM.
The matching figures for `C[C@H](NC(=O)N1CCN(c2ncnc3cc(-c4ccc(F)cc4)sc23)CC1(C)C)c1cccc(OC(F)F)c1` [P-0577, N-[(1S)-1-[3-(difluoromethoxy)phenyl]ethyl]-4-[6-(4-fluorophenyl)thieno[3,2-d]pyrimidin-4-yl]-2,2-dimethyl-piperazine-1-carboxamide]: 0.0001 to 1 µM and 10 to 200 µM.
In the case of `C[C@H](NC(=O)N1CC=C(c2ncnc3cc(-c4ccc(F)cc4)sc23)CC1)c1cccc(Cl)c1` [P-0579, N-[(1S)-1-(3-chlorophenyl)ethyl]-4-[6-(4-fluorophenyl)thieno[3,2-d]pyrimidin-4-yl]-3,6-dihydro-2H-pyridine-1-carboxamide], the IC50 lay in the range of 1 to 10 µM on c-kit mutant D816V and 10 to 200 µM at c-kit kinase.
Turning to `C[C@H](NC(=O)N1CCN(c2ncnc3cc(-c4ccc(F)cc4)sc23)CC1(C)C)c1cccc(Cl)c1` [P-0580, N-[(1S)-1-(3-chlorophenyl)ethyl]-4-[6-(4-fluorophenyl)thieno[3,2-d]pyrimidin-4-yl]-2,2-dimethyl-piperazine-1-carboxamide], the IC50 on c-kit mutant D816V was in the range of 0.0001 to 1 µM; at c-kit kinase, 10 to 200 µM.
Consider `COc1cccc([C@H](C)NC(=O)N2CC=C(c3ncnc4cc(-c5ccc(F)cc5)sc34)CC2)c1` [P-0581, 4-[6-(4-fluorophenyl)thieno[3,2-d]pyrimidin-4-yl]-N-[(1S)-1-(3-methoxyphenyl)ethyl]-3,6-dihydro-2H-pyridine-1-carboxamide], for which the IC50 is 0.0001 to 1 µM at c-kit mutant D816V and 1 to 10 µM at c-kit kinase.
Take `COc1cccc([C@H](C)NC(=O)N2CC=C(c3ncnc4cc(-c5cn(C)nc5C)sc34)CC2)c1` [P-0582, 4-[6-(1,3-dimethylpyrazol-4-yl)thieno[3,2-d]pyrimidin-4-yl]-N-[(1S)-1-(3-methoxyphenyl)ethyl]-3,6-dihydro-2H-pyridine-1-carboxamide]: the IC50 on c-kit mutant D816V was 0.0001 to 1 µM; on c-kit kinase it was 1 to 10 µM.
Take `Cc1ccc(S(=O)(=O)Nc2ccc(-c3ncnc4cc(C5=CCN(C(=O)C6CC6)CC5)sc34)cc2)cc1` [P-0583, N-[4-[6-[1-(cyclopropanecarbonyl)-3,6-dihydro-2H-pyridin-4-yl]thieno[3,2-d]pyrimidin-4-yl]phenyl]-4-methyl-benzenesulfonamide]: the IC50 at c-kit mutant D816V and at c-kit kinase was 0.0001 to 1 µM in each case.
`Cc1nn(C)cc1-c1cc2ncnc(N3CCN(C(=O)N[C@@H](C)c4cccc(F)c4)[C@H](C)C3)c2s1` [P-0584, (2R)-4-[6-(1,3-dimethylpyrazol-4-yl)thieno[3,2-d]pyrimidin-4-yl]-N-[(1S)-1-(3-fluorophenyl)ethyl]-2-methyl-piperazine-1-carboxamide]: the figures for the IC50 at c-kit mutant D816V and on c-kit kinase were 0.0001 to 1 µM and 1 to 10 µM, respectively.
As for `C[C@H](NC(=O)N1CCN(c2ncnc3cc(-c4ccc(F)cc4)sc23)C[C@H]1C)c1cccc(F)c1` [P-0585, (2R)-N-[(1S)-1-(3-fluorophenyl)ethyl]-4-[6-(4-fluorophenyl)thieno[3,2-d]pyrimidin-4-yl]-2-methyl-piperazine-1-carboxamide], the IC50 at c-kit mutant D816V and at c-kit kinase was 1 to 10 µM in each case.
For `C[C@H](NC(=O)N1CCN(c2ncnc3cc(-c4ccc(F)cc4)sc23)C[C@H]1C)c1cccc(OC(F)F)c1` [P-0586, (2R)-N-[(1S)-1-[3-(difluoromethoxy)phenyl]ethyl]-4-[6-(4-fluorophenyl)thieno[3,2-d]pyrimidin-4-yl]-2-methyl-piperazine-1-carboxamide], the figures for the IC50 on c-kit mutant D816V and on c-kit kinase were 0.0001 to 1 µM and 1 to 10 µM, respectively.
The matching figures for `Cc1nn(C)cc1-c1cc2ncnc(N3CCN(C(=O)N[C@@H](C)c4cccc(OC(F)F)c4)[C@H](C)C3)c2s1` [P-0587, (2R)-N-[(1S)-1-[3-(difluoromethoxy)phenyl]ethyl]-4-[6-(1,3-dimethylpyrazol-4-yl)thieno[3,2-d]pyrimidin-4-yl]-2-methyl-piperazine-1-carboxamide]: 0.0001 to 1 µM and 10 to 200 µM.
With `O=C(NCc1ccc(F)cc1)N1CCN(c2ncnc3cc(C4CCN(C(=O)C5CC5)CC4)sc23)CC1` [P-0588, 4-[6-[1-(cyclopropanecarbonyl)-4-piperidyl]thieno[3,2-d]pyrimidin-4-yl]-N-[(4-fluorophenyl)methyl]piperazine-1-carboxamide], the IC50 on c-kit mutant D816V was in the range of 0.0001 to 1 µM; at c-kit kinase, 10 to 200 µM.
With `C[C@H](NC(=O)N1CCN(c2ncnc3cc(N4CCOCC4)sc23)CC1)c1ccc(F)cc1` [P-0589, N-[(1S)-1-(4-fluorophenyl)ethyl]-4-(6-morpholinothieno[3,2-d]pyrimidin-4-yl)piperazine-1-carboxamide], the IC50 at c-kit mutant D816V lay in the range of 0.0001 to 1 µM; at c-kit kinase, 10 to 200 µM.
With `Cc1ccc(S(=O)(=O)Nc2ccc(-c3ncnc4cc(C5=CCN(C(=O)N6CCOCC6)CC5)sc34)cc2)cc1` [P-0590, 4-methyl-N-[4-[6-[1-(morpholine-4-carbonyl)-3,6-dihydro-2H-pyridin-4-yl]thieno[3,2-d]pyrimidin-4-yl]phenyl]benzenesulfonamide], the IC50 on c-kit mutant D816V and at c-kit kinase was 0.0001 to 1 µM each time.
As to `Cc1nn(C)cc1-c1cc2ncnc(N3CCN(C(=O)N[C@@H](C)c4cccc(Cl)c4)[C@H](C)C3)c2s1` [P-0591, (2R)-N-[(1S)-1-(3-chlorophenyl)ethyl]-4-[6-(1,3-dimethylpyrazol-4-yl)thieno[3,2-d]pyrimidin-4-yl]-2-methyl-piperazine-1-carboxamide], the IC50 on c-kit mutant D816V fell in the range of 0.0001 to 1 µM; on c-kit kinase, 10 to 200 µM.
For `Cc1ccc(S(=O)(=O)Nc2ccc(-c3ncnc4cc(C5CCNCC5)sc34)cc2)cc1` [P-0592, 4-methyl-N-[4-[6-(4-piperidyl)thieno[3,2-d]pyrimidin-4-yl]phenyl]benzenesulfonamide], the concentration for half-maximal inhibition (IC50) at c-kit mutant D816V lay in the range of 0.0001 to 1 µM; at c-kit kinase, 10 to 200 µM.
Consider `C[C@H](NC(=O)N1CCN(c2ncnc3cc(-c4ccc(F)cc4)sc23)CC1(C)C)c1ccc(F)cc1` [P-0593, N-[(1S)-1-(4-fluorophenyl)ethyl]-4-[6-(4-fluorophenyl)thieno[3,2-d]pyrimidin-4-yl]-2,2-dimethyl-piperazine-1-carboxamide], for which the values for the IC50 at c-kit mutant D816V and at c-kit kinase were 0.0001 to 1 µM and 10 to 200 µM, respectively.
`COc1cccc([C@H](C)NC(=O)N2CCN(c3ncnc4cc(-c5ccc(F)cc5)sc34)CC2(C)C)c1` [P-0594, 4-[6-(4-fluorophenyl)thieno[3,2-d]pyrimidin-4-yl]-N-[(1S)-1-(3-methoxyphenyl)ethyl]-2,2-dimethyl-piperazine-1-carboxamide]: the values for the IC50 at c-kit mutant D816V and on c-kit kinase were 0.0001 to 1 µM and 1 to 10 µM, respectively.
Take `CC1(C)CN(c2ncnc3cc(-c4ccc(F)cc4)sc23)CCN1` [P-0595, 4-(3,3-dimethylpiperazin-1-yl)-6-(4-fluorophenyl)thieno[3,2-d]pyrimidine]: the IC50 on c-kit mutant D816V and at c-kit kinase was 10 to 200 µM throughout.
As for `O=C(NCc1ccc(F)cc1)N1CCN(c2ncnc3cc(C4CCNCC4)sc23)CC1` [P-0596, N-[(4-fluorophenyl)methyl]-4-[6-(4-piperidyl)thieno[3,2-d]pyrimidin-4-yl]piperazine-1-carboxamide], the IC50 was in the range of 1 to 10 µM at c-kit mutant D816V and 10 to 200 µM at c-kit kinase.
In the case of `COc1cccc([C@H](C)NC(=O)N2CCN(c3ncnc4cc(-c5cn(C)nc5C)sc34)C[C@H]2C)c1` [P-0598, (2R)-4-[6-(1,3-dimethylpyrazol-4-yl)thieno[3,2-d]pyrimidin-4-yl]-N-[(1S)-1-(3-methoxyphenyl)ethyl]-2-methyl-piperazine-1-carboxamide], the IC50 at c-kit mutant D816V lay in the range of 0.0001 to 1 µM; on c-kit kinase, 1 to 10 µM.
With `Cc1nn(C)cc1-c1cc2ncnc(N3CCN(C(=O)N[C@@H](C)c4ccc(F)cc4)[C@H](C)C3)c2s1` [P-0599, (2R)-4-[6-(1,3-dimethylpyrazol-4-yl)thieno[3,2-d]pyrimidin-4-yl]-N-[(1S)-1-(4-fluorophenyl)ethyl]-2-methyl-piperazine-1-carboxamide], the IC50 at c-kit mutant D816V fell in the range of 0.0001 to 1 µM; at c-kit kinase, 10 to 200 µM.
As to `COc1cccc([C@H](C)NC(=O)N2CCN(c3ncnc4cc(-c5ccc(F)cc5)sc34)C[C@H]2C)c1` [P-0600, (2R)-4-[6-(4-fluorophenyl)thieno[3,2-d]pyrimidin-4-yl]-N-[(1S)-1-(3-methoxyphenyl)ethyl]-2-methyl-piperazine-1-carboxamide], the IC50 at c-kit mutant D816V fell in the range of 0.0001 to 1 µM; at c-kit kinase it was 10 to 200 µM.
